Data taken from article PMC5397484, “Gel-Based Purification and Biochemical Study of Laccase Isozymes from Ganoderma sp. and Its Role in Enhanced Cotton Callogenesis” (Frontiers in Microbiology, 2017).
Read-outs that look alike come from different tables or passages of the source.

Assays:
Experiment in all cases: absorbance […] nm, Eadie-Hofstee plot
Assay type in all cases: biochemical, Ganoderma lucidum
[1] = system: T1, Glac L4; details: 0.1 M sodium acetate pH 5.0 (methods; table title says optimal pH); 0.02-0.5 mM substrate; read-out: ABTS / Km
T1 construct: gene GL16398; native secreted isozyme, copper-induced culture, native-PAGE purified; 40-66 kDa range for all isozymes, described as multimeric; gene not assigned (GL tags are of another genome strain)

[2] = system: T2, Glac L5; details: 0.1 M sodium acetate pH 5.0 (methods; table title says optimal pH); 0.02-0.5 mM substrate; read-out: ABTS / Km
T2 construct: gene GL16398; native secreted isozyme, copper-induced culture, native-PAGE purified; 40-66 kDa range for all isozymes, described as multimeric; gene not assigned (GL tags are of another genome strain)

[3] = system: T3, Glac L3; details: 0.1 M sodium acetate pH 5.0 (methods; table title says optimal pH); 0.02-0.5 mM substrate; read-out: ABTS / Km
T3 construct: gene GL16398; native secreted isozyme, copper-induced culture, native-PAGE purified; 40-66 kDa range for all isozymes, described as multimeric; gene not assigned (GL tags are of another genome strain)

[4] = system: T4, Glac L2; details: 0.1 M sodium acetate pH 5.0 (methods; table title says optimal pH); 0.02-0.5 mM substrate; read-out: ABTS / Km
T4 construct: gene GL16398; native secreted isozyme, copper-induced culture, native-PAGE purified; 40-66 kDa range for all isozymes, described as multimeric; gene not assigned (GL tags are of another genome strain)

[5] = system: T1, Glac L4; details: citrate-phosphate pH 4.0 (methods; table title says optimal pH); 0.5-3.0 mM substrate; read-out: Guaiacol / Km
[6] = system: T3, Glac L3; details: citrate-phosphate pH 4.0 (methods; table title says optimal pH); 0.5-3.0 mM substrate; read-out: Guaiacol / Km
[7] = system: T2, Glac L5; details: citrate-phosphate pH 4.0 (methods; table title says optimal pH); 0.5-3.0 mM substrate; read-out: Guaiacol / Km
[8] = system: T4, Glac L2; details: citrate-phosphate pH 4.0 (methods; table title says optimal pH); 0.5-3.0 mM substrate; read-out: Guaiacol / Km
[9] = system: T1, Glac L4; details: citrate-phosphate pH 4.0 (methods; table title says optimal pH); 0.1-0.8 mM substrate; read-out: O-tolidine / Km
[10] = system: T3, Glac L3; details: citrate-phosphate pH 4.0 (methods; table title says optimal pH); 0.1-0.8 mM substrate; read-out: O-tolidine / Km
[11] = system: T2, Glac L5; details: citrate-phosphate pH 4.0 (methods; table title says optimal pH); 0.1-0.8 mM substrate; read-out: O-tolidine / Km
[12] = system: T4, Glac L2; details: citrate-phosphate pH 4.0 (methods; table title says optimal pH); 0.1-0.8 mM substrate; read-out: O-tolidine / Km

With `CCn1c(=NN=c2sc3cc(S(=O)(=O)O)ccc3n2CC)sc2cc(S(=O)(=O)O)ccc21` [ABTS, 2,2′-azino-bis(3-ethylbenzothiazoline-6-sulfonic acid)] the Km [1] was 50 µM, the Km [2] was 15 µM and the Km [3] was 81 µM. For the same molecule, the Km [4] was 83 µM.

`COc1ccccc1O` [guaiacol] gave a Km [5] of 96 µM, a Km [6] of 80 µM and a Km [7] of 126 µM. The Km [8] was 115 µM.

Molecule `Cc1cc(-c2ccc(N)c(C)c2)ccc1N` [O-tolidine] has a Km [9] of 365 µM, a Km [10] of 507 µM and a Km [11] of 78 µM. For the same molecule, the Km [12] was 724 µM.
